Measured values reported in the supplement of paper PMC10307832.

Experiments:
Assay in all cases: relative viability (nuclei count vs DMSO), 5 days (fraction); higher = more cells survive
[1] = tested on: NCI-H322M
Summary of the method: (§1)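 Each reported value is a median over duplicate plates. It expresses relative viability: treated-well nuclei count divided by vehicle-well nuclei count. Lung cancer cell lines in 1536-well plates were dosed by pin tool a day after seeding, alone with one drug or with a fixed anchor-drug dose plus five library-drug doses (not always all listed) in √10 steps, and nuclei were counted after 5 days.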

[2] = tested on: EMC-BAC-2
Summary of the method: as §1

[3] = tested on: H3255
Summary of the method: as §1

[4] = tested on: EPLC-272H
Summary of the method: as §1

[5] = tested on: UMC-11
Summary of the method: as §1

[6] = tested on: SK-MES-1
Summary of the method: as §1

[7] = tested on: LCLC-97TM1
Summary of the method: as §1

[8] = tested on: NCI-H2023
Summary of the method: as §1

[9] = tested on: NCI-H650
Summary of the method: as §1

[10] = tested on: NCI-H1355
Summary of the method: as §1

[11] = tested on: NCI-H520
Summary of the method: as §1

[12] = tested on: LCLC-103H
Summary of the method: as §1

[13] = tested on: HCC-827
Summary of the method: as §1

[14] = tested on: NCI-H1563
Summary of the method: as §1

[15] = tested on: NCI-H1651
Summary of the method: as §1

[16] = tested on: NCI-H1793
Summary of the method: as §1

[17] = tested on: NCI-H2087
Summary of the method: as §1

[18] = tested on: NCI-H1944
Summary of the method: as §1

[19] = tested on: ChaGo-K-1
Summary of the method: as §1

[20] = tested on: NCI-H2085
Summary of the method: as §1

[21] = tested on: NCI-H2405
Summary of the method: as §1

[22] = tested on: HCC-44
Summary of the method: as §1

[23] = tested on: NCI-H1395
Summary of the method: as §1

Compound `C=C1C(=O)O[C@@H](CCCCCCCC)[C@@H]1C(=O)O` [C-75] + CS(=O)(=O)N1CCN(Cc2cc3nc(-c4cccc5[nH]ncc45)nc(N4CCOCC4)c3s2)CC1 [Pictilisib] (partner 1 µM) has a relative viability ([1]; first compound 0.08 µM) of 0.563, a relative viability ([1]; first compound 0.253 µM) of 0.674 and a relative viability ([1]; first compound 0.8 µM) of 0.514. For the same compound, the relative viability ([1]; first compound 2.53 µM) was 0.528, the relative viability ([1]; first compound 8 µM) was 0.489 and the relative viability ([2]; first compound 0.08 µM) was 0.51. It also gave a relative viability ([2]; first compound 0.253 µM) of 0.491, a relative viability ([2]; first compound 0.8 µM) of 0.51 and a relative viability ([2]; first compound 2.53 µM) of 0.521. The relative viability ([2]; first compound 8 µM) was 0.587, the relative viability ([3]; first compound 0.08 µM) was 0.464 and the relative viability ([3]; first compound 0.253 µM) was 0.572. It also gave a relative viability ([3]; first compound 0.8 µM) of 0.458, a relative viability ([3]; first compound 2.53 µM) of 0.494 and a relative viability ([3]; first compound 8 µM) of 0.447. The relative viability ([4]; first compound 0.08 µM) was 0.336, the relative viability ([4]; first compound 0.253 µM) was 0.308 and the relative viability ([4]; first compound 0.8 µM) was 0.298. The relative viability ([4]; first compound 2.53 µM) was 0.265, the relative viability ([4]; first compound 8 µM) was 0.232 and the relative viability ([5]; first compound 0.08 µM) was 0.74. For the same compound, the relative viability ([5]; first compound 0.253 µM) was 0.899, the relative viability ([5]; first compound 0.8 µM) was 0.704 and the relative viability ([5]; first compound 2.53 µM) was 0.702. The relative viability ([5]; first compound 8 µM) was 0.75, the relative viability ([6]; first compound 0.08 µM) was 0.339 and the relative viability ([6]; first compound 0.253 µM) was 0.374. The relative viability ([6]; first compound 0.8 µM) was 0.374, the relative viability ([6]; first compound 2.53 µM) was 0.373 and the relative viability ([6]; first compound 8 µM) was 0.346. For the same compound, the relative viability ([7]; first compound 0.08 µM) was 0.234, the relative viability ([7]; first compound 0.253 µM) was 0.215 and the relative viability ([7]; first compound 0.8 µM) was 0.265. It also gave a relative viability ([7]; first compound 2.53 µM) of 0.187, a relative viability ([7]; first compound 8 µM) of 0.18 and a relative viability ([8]; first compound 0.08 µM) of 0.239. The relative viability ([8]; first compound 0.253 µM) was 0.29, the relative viability ([8]; first compound 0.8 µM) was 0.203 and the relative viability ([8]; first compound 2.53 µM) was 0.311. It also gave a relative viability ([8]; first compound 8 µM) of 0.262, a relative viability ([9]; first compound 0.08 µM) of 0.864 and a relative viability ([9]; first compound 0.253 µM) of 0.825. For the same compound, the relative viability ([9]; first compound 0.8 µM) was 0.801, the relative viability ([9]; first compound 2.53 µM) was 0.815 and the relative viability ([9]; first compound 8 µM) was 0.883. It also gave a relative viability ([10]; first compound 0.08 µM) of 0.477, a relative viability ([10]; first compound 0.253 µM) of 0.48 and a relative viability ([10]; first compound 0.8 µM) of 0.348. The relative viability ([10]; first compound 2.53 µM) was 0.507, the relative viability ([10]; first compound 8 µM) was 0.465 and the relative viability ([11]; first compound 0.08 µM) was 0.24. It also gave a relative viability ([11]; first compound 0.253 µM) of 0.357, a relative viability ([11]; first compound 0.8 µM) of 0.309 and a relative viability ([11]; first compound 2.53 µM) of 0.224. The relative viability ([11]; first compound 8 µM) was 0.297, the relative viability ([12]; first compound 0.08 µM) was 0.573 and the relative viability ([12]; first compound 0.253 µM) was 0.641. It also gave a relative viability ([12]; first compound 0.8 µM) of 0.517, a relative viability ([12]; first compound 2.53 µM) of 0.568 and a relative viability ([12]; first compound 8 µM) of 0.488. The relative viability ([13]; first compound 0.08 µM) was 0.954, the relative viability ([13]; first compound 0.253 µM) was 0.95 and the relative viability ([13]; first compound 0.8 µM) was 1.14. For the same compound, the relative viability ([13]; first compound 2.53 µM) was 0.694, the relative viability ([13]; first compound 8 µM) was 0.915 and the relative viability ([14]; first compound 0.08 µM) was 0.606. The relative viability ([14]; first compound 0.253 µM) was 0.681, the relative viability ([14]; first compound 0.8 µM) was 0.737 and the relative viability ([14]; first compound 2.53 µM) was 0.673. The relative viability ([14]; first compound 8 µM) was 0.63, the relative viability ([15]; first compound 0.08 µM) was 0.466 and the relative viability ([15]; first compound 0.253 µM) was 0.633. It also gave a relative viability ([15]; first compound 0.8 µM) of 0.499, a relative viability ([15]; first compound 2.53 µM) of 1.04 and a relative viability ([15]; first compound 8 µM) of 0.501. For the same compound, the relative viability ([16]; first compound 0.08 µM) was 0.339, the relative viability ([16]; first compound 0.253 µM) was 0.359 and the relative viability ([16]; first compound 0.8 µM) was 0.324. The relative viability ([16]; first compound 2.53 µM) was 0.215, the relative viability ([16]; first compound 8 µM) was 0.372 and the relative viability ([17]; first compound 0.08 µM) was 0.853. It also gave a relative viability ([17]; first compound 0.253 µM) of 0.844, a relative viability ([17]; first compound 0.8 µM) of 0.733 and a relative viability ([17]; first compound 2.53 µM) of 0.428. The relative viability ([17]; first compound 8 µM) was 0.859, the relative viability ([18]; first compound 0.08 µM) was 0.346 and the relative viability ([18]; first compound 0.253 µM) was 0.34. The relative viability ([18]; first compound 0.8 µM) was 0.33, the relative viability ([18]; first compound 8 µM) was 0.342 and the relative viability ([19]; first compound 0.08 µM) was 0.431. For the same compound, the relative viability ([19]; first compound 0.253 µM) was 0.749, the relative viability ([19]; first compound 0.8 µM) was 0.594 and the relative viability ([19]; first compound 2.53 µM) was 0.507. For the same compound, the relative viability ([19]; first compound 8 µM) was 0.771, the relative viability ([20]; first compound 0.08 µM) was 0.504 and the relative viability ([20]; first compound 0.253 µM) was 0.543. For the same compound, the relative viability ([20]; first compound 0.8 µM) was 0.433, the relative viability ([20]; first compound 2.53 µM) was 0.339 and the relative viability ([20]; first compound 8 µM) was 0.413. For the same compound, the relative viability ([21]; first compound 0.08 µM) was 0.471, the relative viability ([21]; first compound 0.253 µM) was 0.307 and the relative viability ([21]; first compound 0.8 µM) was 0.37. For the same compound, the relative viability ([21]; first compound 2.53 µM) was 0.408, the relative viability ([21]; first compound 8 µM) was 0.391 and the relative viability ([22]; first compound 0.08 µM) was 0.65. The relative viability ([22]; first compound 0.253 µM) was 0.599, the relative viability ([22]; first compound 0.8 µM) was 0.558 and the relative viability ([22]; first compound 2.53 µM) was 0.622. It also gave a relative viability ([22]; first compound 8 µM) of 0.644, a relative viability ([23]; first compound 0.08 µM) of 0.599 and a relative viability ([23]; first compound 0.253 µM) of 0.572. It also gave a relative viability ([23]; first compound 0.8 µM) of 0.539, a relative viability ([23]; first compound 2.53 µM) of 0.474 and a relative viability ([23]; first compound 8 µM) of 0.7.
